# According to patent US20150253305A1, “METHODS OF IDENTIFYING COMPOUNDS FOR TREATING DEPRESSION AND OTHER RELATED DISEASES” (NORTHWESTERN UNIVERSITY, priority 2012, published 2015):
# Peptide text beside a SMILES is read from it.
# Assays:
# [1] = tested on: Sprague-Dawley rats; test: Ketamine drug discrimination; conditions: FIG. 5: drug discrimination, place preference, prepulse inhibition, open field
# [2] = tested on: Wnt signaling pathway gene expression; test: Wnt pathway-specific qRT-PCR array in mPFC; type: in vivo, rat
# Description: Adult (2-3 month-old) male Sprague-Dawley rats (Harlan Laboratories, Indianapolis, Ind.) were housed 3 to a cage and injected (IV) with one of the following—GLYX-13 (3 mg/kg), ketamine (10 mg/kg), or saline vehicle (1 ml/kg). At 1 and 24 hours after injection (N=5 per time point for each treatment group), rats were sacrificed, their brains were quickly dissected, frozen, and then stored at −80° C. The medial prefrontal cortex (mPFC) was dissected from frozen tissue on ice. An equal volume of the homogenized tissue was used to extract and purify RNA for microarray analysis and to make cDNA for qRT-PCR analysis. All procedures were approved by the Northwestern University IACUC committee and performed in accordance with the NIH Guide for the Care and Use of Laboratory Animals.
# Reverse transcription of 1.0 μg of DNAsed, total RNA from 4 rats was primed with oligo(dT) and random hexamers. We utilized SuperScriptIII according to manufacturer's specifications (Invitrogen, Carlsbad, Calif.). A 1:10 dilution of cDNA was used as a template for quantitative real-time PCR, and the analysis was performed with Brilliant SYBR Green qRT-PCR Master Mix (Stratagene) on a Mx3000P Real-Time PCR System. ROX reference dye was included in all reactions. […]
# [3] = tested on: Sprague-Dawley rats; test: Open field locomotor activity (line crosses); conditions: 0.1 μg, 20 min following MPFC infusion
# [4] = tested on: Sprague-Dawley rats; test: Porsolt test; conditions: IV
Compound,"ketamine-like addictive sensory motor gating, or sedative side effects [1]","number of genes downregulated (Wnt qRT-PCR array) ([2]; 1 and 24 hrs following administration, 10 mg/kg IV, mPFC) [gene]","Frizzled 2 (Fzd) gene expression (Wnt qPCR array) ([2]; following injection, relative to vehicle control rats)",locomotor activity (line crosses in the open field) following MPFC infusion [3],anti-depressant effect in the Porsolt test ([4]; 10 mg/kg),rapid antidepressant-like effects in the Porsolt test ([4]; rat)
"C[C@@H](O)[C@H](N)C(=O)N1CCC[C@H]1C(=O)N1CCC[C@H]1C(=O)N[C@H](C(N)=O)[C@@H](C)O [GLYX-13, L-threonyl-L-prolyl-L-prolyl-L-threonine amide] (H-TPPT-NH2)","does not show ketamine-like addictive sensory motor gating, or sedative side effects",,,,,
"CNC1(c2ccccc2Cl)CCCCC1=O (stereo not drawn) [Ketamine, ketamine]",,1,Significant gene expression changes,increased locomotor activity,produces a long-lasting anti-depressant effect,produce rapid antidepressant-like effects
